Assay results reported in patent US10471046B2, “Method for treating, preventing, or reducing the risk of skin infection” (Melinta Subsidiary Corp., priority 2014, dated 2019).
≈ marks a conversion by molar mass, not a printed value.

What was measured:
[1] = Radezolid levels in granuloma pouch and plasma; format: in vivo; settings: FIGS. 3-4
F. magna = assay: Broth microdilution MIC; format: cell-based; settings: Finegoldia magna, ATCC15794; F. magna ATCC 15794
B. fragilis = assay: Broth microdilution MIC; format: cell-based; settings: Bacteroides fragilis, ATCC25285; B. fragilis ATCC 25285
S. aureus = assay: Broth microdilution MIC; format: cell-based; settings: Staphylococcus aureus, ATCC29213; S. aureus ATCC 29213

With `CC(=O)NC[C@H]1CN(c2ccc(-c3ccc(CNCc4cnn[nH]4)cc3)c(F)c2)C(=O)O1` [Radezolid, (5S)—N-[3-(2-Fluoro-4′-{[(1H-[1,2,3]triazol-4-ylmethyl)-amino]-methyl}-biphenyl-4-yl)-2-oxo-oxazolidin-5-ylmethyl]-acetamide] the “levels in granuloma pouch versus plasma over time” value [1] was “remain high in granuloma pouch even as they decline in the plasma”, the MIC (F. magna) was 0.125 µg/mL (≈ 0.285 µM) and the MIC (B. fragilis) was 2 µg/mL (≈ 4.56 µM). It also gave an MIC (S. aureus) of 2 µg/mL (≈ 4.56 µM).
